According to PubChem BioAssay AID330 (DTP/NCI, 2004):
Several values for one entry are separate records, joined by “and”; a condition that tells them apart may be missing. Equal entries are not always repeated. Inconclusive results and toxic doses are left out.

Tested on: P388 leukemia ip, CD2F1 mice, survival T/C
Test: NCI In Vivo Anticancer Drug Screen. Data for tumor model P388 Leukemia (intraperitoneal) in CD2F1 (CDF1) mice
Details: endpoint: median survival time, higher = longer survival
Method in brief: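 Mice carrying the transplanted tumor received test compound or vehicle. Survival was recorded in each group, and the value is the treated-group measurement divided by that of the vehicle-treated control group.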

[1] = dose: 20.0 mg/kg/injection, schedule: Q01DX009 (ip), vehicle: saline with Tween-80
[2] = dose: 100.0 mg/kg/injection, schedule: Q04DX002 (ip), vehicle: saline with Tween-80
[3] = dose: 50.0 mg/kg/injection, schedule: Q01DX009 (ip), vehicle: saline with Tween-80
[4] = dose: 100.0 mg/kg/injection, schedule: Q01DX009 (ip), vehicle: saline with Tween-80
[5] = dose: 200.0 mg/kg/injection, schedule: Q01DX009 (ip), vehicle: saline with Tween-80
[6] = dose: 50.0 mg/kg/injection, schedule: Q01DX005 (ip), vehicle: saline with Tween-80
[7] = dose: 100.0 mg/kg/injection, schedule: Q01DX005 (ip), vehicle: saline with Tween-80
[8] = dose: 200.0 mg/kg/injection, schedule: Q01DX005 (ip), vehicle: saline with Tween-80
[9] = dose: 50.0 mg/kg/injection, schedule: Q01DX005 (ip), vehicle: Klucel (hydroxypropylcellulose) (HPC)
[10] = dose: 100.0 mg/kg/injection, schedule: Q01DX005 (ip), vehicle: Klucel (hydroxypropylcellulose) (HPC)
[11] = dose: 200.0 mg/kg/injection, schedule: Q01DX005 (ip), vehicle: Klucel (hydroxypropylcellulose) (HPC)
[12] = dose: 12.5 mg/kg/injection, schedule: Q01DX005 (ip), vehicle: saline
[13] = dose: 25.0 mg/kg/injection, schedule: Q01DX005 (ip), vehicle: saline
[14] = dose: 50.0 mg/kg/injection, schedule: Q01DX005 (ip), vehicle: saline
[15] = dose: 100.0 mg/kg/injection, schedule: Q04DX002 (ip), vehicle: saline
[16] = dose: 200.0 mg/kg/injection, schedule: Q04DX002 (ip), vehicle: saline
[17] = dose: 400.0 mg/kg/injection, schedule: Q04DX002 (ip), vehicle: saline
[18] = dose: 25.0 mg/kg/injection, schedule: Q01DX009 (ip), vehicle: saline with Tween-80

COc1cc2c3c(c1O)-c1cc4c(cc1CC3N(C)CC2)OCO4 (stereo unspecified)
T/C (dose: 10.0 mg/kg/injection, schedule: Q01DX009 (ip), vehicle: saline with Tween-80): 102 % of control
T/C [1]: 104 % of control
T/C (dose: 40.0 mg/kg/injection, schedule: Q01DX009 (ip), vehicle: saline with Tween-80): 98 % of control
T/C [2]: 97 % of control

C[C@H](N)C(=O)N[C@@H]1[C@H]2C(=C(O)C[C@@H](O)[C@@H]2O)C(=O)O[C@]1(C)C(Cl)Cl
T/C (dose: 0.78 mg/kg/injection, schedule: Q01DX009 (ip), vehicle: Klucel (hydroxypropylcellulose) (HPC)): 150 % of control and 167 % of control
T/C (dose: 1.56 mg/kg/injection, schedule: Q01DX009 (ip), vehicle: Klucel (hydroxypropylcellulose) (HPC)): 161 % of control and 187 % of control and 205 % of control
T/C (dose: 3.12 mg/kg/injection, schedule: Q01DX009 (ip), vehicle: Klucel (hydroxypropylcellulose) (HPC)): 117 % of control and 118 % of control

CN1C2=C(C#N)C(=C(C#N)C#N)NC2C(C)(C)c2ccccc21 (stereo unspecified)
T/C [3]: 96 % of control
T/C [4]: 88 % of control
T/C [5]: 92 % of control

N=C(N)c1ccc(NC(=O)c2ccc(C(=O)Nc3ccc(C(=N)N)cc3)c(N)c2)cc1
T/C [6]: 110 % of control
T/C [7]: 107 % of control
T/C [8]: 87 % of control

CCC(=N/NC(=S)NCCN1CCCCC1)/C(CC)=N\NC(=S)NCCN1CCCCC1
T/C (dose: 3.13 mg/kg/injection, schedule: Q01DX009 (ip), vehicle: saline with Tween-80): 100 % of control
T/C (dose: 6.25 mg/kg/injection, schedule: Q01DX009 (ip), vehicle: saline with Tween-80): 103 % of control

O=C1c2ccccc2C(=O)C1c1ccc2c(ccc3ccccc32)n1
T/C [9]: 98 % of control
T/C [10]: 88 % of control
T/C [11]: 96 % of control

COC(=O)c1nnn(-c2cccc(Cl)c2)c1N
T/C (dose: 60.0 mg/kg/injection, schedule: Q01DX005 (ip), vehicle: saline with Tween-80): 95 % of control
T/C (dose: 120.0 mg/kg/injection, schedule: Q01DX005 (ip), vehicle: saline with Tween-80): 95 % of control

Cc1ccc(NCCN2CCC(C3CCN(CCNc4ccc(C)c5sc6ccccc6c(=O)c45)CC3)CC2)c2c(=O)c3ccccc3sc12
T/C (dose: 6.25 mg/kg/injection, schedule: Q01DX005 (ip), vehicle: saline with Tween-80): 90 % of control
T/C (dose: 12.5 mg/kg/injection, schedule: Q01DX005 (ip), vehicle: saline with Tween-80): 97 % of control
T/C (dose: 25.0 mg/kg/injection, schedule: Q01DX005 (ip), vehicle: saline with Tween-80): 95 % of control
T/C [6]: 94 % of control

CCOC(=O)C(c1ccccc1)N(CCCN(CC)CC)c1ccccc1 (stereo unspecified)
T/C [12]: 108 % of control
T/C [13]: 108 % of control
T/C [6]: 100 % of control
T/C [14]: 101 % of control

C=CCOC(=O)C1=C(O[Si]C(C)(C)C)CCCC1
T/C [3]: 96 % of control
T/C [4]: 99 % of control
T/C [5]: 109 % of control

NS(=O)(=O)c1cc(C(=O)O)cc(NC(=O)CCCCl)c1Oc1ccccc1
T/C [3]: 103 % of control and 123 % of control
T/C [4]: 100 % of control and 96 % of control
T/C [5]: 104 % of control and 123 % of control

C[N-]N(C)C(=O)[S-].C[N-]N(C)C(=O)[S-].C[N-]N(C)C(=O)[S-].[Co]
T/C (dose: 25.0 mg/kg/injection, schedule: Q04DX003 (ip), vehicle: saline with Tween-80): 103 % of control
T/C (dose: 50.0 mg/kg/injection, schedule: Q04DX003 (ip), vehicle: saline with Tween-80): 103 % of control

O=NN(c1ccccc1)c1ccccc1
T/C [3]: 101 % of control
T/C [4]: 100 % of control
T/C [5]: 98 % of control

O=c1[nH]c2ccccc2c(=O)n1-c1ccco1
T/C [15]: 100 % of control
T/C [16]: 102 % of control
T/C [17]: 101 % of control

NC(=S)Nc1cccc(C(F)(F)F)c1
T/C (dose: 100.0 mg/kg/injection, schedule: Q01DX009 (ip), vehicle: other): 104 % of control
T/C (dose: 200.0 mg/kg/injection, schedule: Q01DX009 (ip), vehicle: other): 115 % of control

C=CCn1c(-c2cccc(O)c2)n[nH]c1=S
T/C [18]: 104 % of control
T/C [3]: 115 % of control
T/C [4]: 96 % of control

CC(C(=O)O)C(Nc1ncnc2c1ncn2C1OC(CO)C(O)C1O)C(=O)O (stereo unspecified)
T/C (dose: 100.0 mg/kg/injection, schedule: Q04DX003 (ip), vehicle: saline): 98 % of control
T/C (dose: 200.0 mg/kg/injection, schedule: Q04DX003 (ip), vehicle: saline): 100 % of control
T/C (dose: 400.0 mg/kg/injection, schedule: Q04DX003 (ip), vehicle: saline): 98 % of control

COc1cc([N+](=O)[O-])c2nc(Cl)ccc2c1[N+](=O)[O-]
T/C (dose: 1.56 mg/kg/injection, schedule: Q01DX009 (ip), vehicle: other): 96 % of control
T/C (dose: 3.13 mg/kg/injection, schedule: Q01DX009 (ip), vehicle: other): 97 % of control
T/C (dose: 6.25 mg/kg/injection, schedule: Q01DX009 (ip), vehicle: other): 104 % of control
T/C (dose: 12.5 mg/kg/injection, schedule: Q01DX009 (ip), vehicle: other): 94 % of control
T/C (dose: 50.0 mg/kg/injection, schedule: Q01DX009 (ip), vehicle: other): 99 % of control

CCN(CC)c1ccc2cc(C(=O)NC(=O)Oc3ccccc3)c(=O)oc2c1
T/C [2]: 92 % of control
T/C (dose: 200.0 mg/kg/injection, schedule: Q04DX002 (ip), vehicle: saline with Tween-80): 89 % of control
T/C (dose: 400.0 mg/kg/injection, schedule: Q04DX002 (ip), vehicle: saline with Tween-80): 87 % of control

CC(=O)OCN1C(=O)C2C3C=CC(C2C1=O)C1C2C(=O)N(COC(C)=O)C(=O)C2C31 (stereo unspecified)
T/C [18]: 117 % of control
T/C [3]: 115 % of control
T/C [5]: 180 % of control
T/C (dose: 400.0 mg/kg/injection, schedule: Q01DX009 (ip), vehicle: saline with Tween-80): 208 % of control

CNC(=N)c1ccc(NC(=N)c2ccc(NC(=N)c3ccc(NC(=N)c4ccc(C(=N)NC)cc4)cc3)cc2)cc1
T/C (dose: 9.0 mg/kg/injection, schedule: Q01DX009 (ip), vehicle: saline with Tween-80): 154 % of control
T/C (dose: 13.0 mg/kg/injection, schedule: Q01DX009 (ip), vehicle: saline with Tween-80): 190 % of control
T/C [1]: 254 % of control

Nc1ccc(C(=O)CC(O)(C(F)(F)F)C(F)(F)F)cc1
T/C (dose: 75.0 mg/kg/injection, schedule: Q04DX003 (ip), vehicle: saline with Tween-80): 95 % of control
T/C (dose: 150.0 mg/kg/injection, schedule: Q04DX003 (ip), vehicle: saline with Tween-80): 95 % of control
T/C (dose: 300.0 mg/kg/injection, schedule: Q04DX003 (ip), vehicle: saline with Tween-80): 100 % of control

O=C1OC2(c3ccc(O)cc3Oc3cc(O)ccc32)c2cccc3cccc1c23
T/C [9]: 105 % of control
T/C [10]: 99 % of control
T/C [11]: 103 % of control

CCN(CC)CCCC(C)N(C)CC(C)CCC1=C(C)CCCC1(C)C (stereo unspecified)
T/C [12]: 97 % of control
T/C [13]: 101 % of control
T/C [14]: 104 % of control

C=C1C(=O)C2CCN1CC2
T/C [6]: 105 % of control and 110 % of control and 113 % of control
T/C [7]: 113 % of control and 116 % of control (2×)
T/C [8]: 111 % of control and 116 % of control

CCOC(=O)c1ccc(NC(CCC(C#N)(C#N)CCC(=NC(C)(C)C)Nc2ccc(C(=O)OCC)cc2)=NC(C)(C)C)cc1
T/C [3]: 95 % of control
T/C [4]: 95 % of control
T/C [5]: 96 % of control

N#CC(C#N)=C(C#N)c1ccccc1
T/C (dose: 12.5 mg/kg/injection, schedule: Q01DX009 (ip), vehicle: saline with Tween-80): 90 % of control
T/C [18]: 113 % of control

C/C(=N\OC(=O)CNOC(C)(C)C)c1ccccn1
T/C (dose: 100.0 mg/kg/injection, schedule: Q01DX001 (ip), vehicle: saline with Tween-80): 103 % of control
T/C (dose: 200.0 mg/kg/injection, schedule: Q01DX001 (ip), vehicle: saline with Tween-80): 99 % of control
T/C (dose: 400.0 mg/kg/injection, schedule: Q01DX001 (ip), vehicle: saline with Tween-80): 99 % of control

O[C@@H]1CCC[C@@H]2O[C@H]12
T/C [15]: 102 % of control
T/C [16]: 103 % of control
T/C [17]: 109 % of control

COP(=O)(O)NS(=O)(=O)c1ccccc1
T/C (dose: 100.0 mg/kg/injection, schedule: Q01DX001 (ip), vehicle: saline): 101 % of control
T/C (dose: 200.0 mg/kg/injection, schedule: Q01DX001 (ip), vehicle: saline): 101 % of control
T/C (dose: 400.0 mg/kg/injection, schedule: Q01DX001 (ip), vehicle: saline): 102 % of control
